{"source": "paper PMC7570852", "about": "“Ruthenium(II)/(III) DMSO-Based Complexes of 2-Aminophenyl Benzimidazole with In Vitro and In Vivo Anticancer Activity” (Molecules, 2020)", "key": {"[1]": {"test_system": "Ehrlich ascites carcinoma (EAC) cells", "design": "method as in PMID 28599251", "details": "literature comparison; cited from earlier work"}, "[2]": {"test_system": "human breast cancer (MCF7) cells", "assay": "MTT cell viability assay, MCF7", "format": "cell-based", "details": "for IC50: read-out: IC50 MCF-7", "description": "(§1) The cytotoxic effect of the Hapbim ligand and its complexes (1) and (2) on human breast cancer (MCF7), human colorectal cancer (Caco2), and human normal liver (THLE-2) cell lines was evaluated by the MTT assay. The cells were cultured in a 96-well plate (1 × 10^4 cells/well, 100 μL/well) containing DMEM medium provided with 10% fetal bovine serum, and 1% penicillin/streptomycin. Then, the cells were incubated at 37 °C for 24 h in a CO2 incubator under 5% CO2, 95% air until reaching a confluence of 70–80%. A 20 μL volume of each compound at different concentrations (from 5 to 400 μM for the cancer cell and from 600 to 1000 μM for the normal cells) was added and the cells were re-incubated for a further 24 h. After the incubation period, the cells were incubated again with 5 mg/mL of MTT for 4 h and then the medium was replaced with 100 μL DMSO and vortexed for 20 min. Finally, the absorbance was recorded at 570 nm using the microplate reader. […] To calculate the cell inhibition percentage, the following equation was used:% Cell inhibition = 100 − % cell viability ((At − Ab)/(Ac − Ab)) × 100%)(4) where At is the absorbance value of tested compound; Ab is the absorbance value of blank; Ac is the absorbance value of the control."}, "[3]": {"test_system": "human colorectal cancer (Caco2) cells", "assay": "MTT cell viability assay, Caco2", "format": "cell-based", "details": "for Therapeutic index: IC50 of THLE-2 cell/IC50 of Caco2: in vitro", "description": "as §1"}, "CT DNA (EB-DNA adduct)": {"test_system": "CT DNA (EB-DNA adduct)", "assay": "Ethidium bromide (EB-DNA) competitive fluorescence assay", "format": "binding, calf", "details": "[DNA] = [EB] = 5 μM", "description": "The binding affinity of the metal complexes towards CT DNA was evaluated using competitive fluorescence studies. CT DNA pretreated with ethidium bromide (EB) ([DNA] = [EB] = 5 μM) in Tris-HCl/NaCl buffer (pH = 7.2) was incubated with the complexes in concentrations of 0–90 μM. […] The quenching of EB-DNA adduct fluorescence was followed by monitoring the emission spectra in the wavelength range of 530–650 nm. Upon addition of the metal complexes to the EB-DNA adduct, the quenching binding constant (Kq) at λ = 585 nm is determined from the Stern-Volmer Equation (2):I0/I = 1 + Kq[Q](2) where I0 and I are the fluorescence intensities of EB-DNA in the […] of the metal complexes, respectively, [Q] is the concentration of the tested compounds, and Kq is the quenching constant calculated from the slope of the straight line obtained from plotting Io/I vs. [Q]. In addition, the apparent binding constant can be calculated from Equation (3):KEB[EB] = Kapp[Q](3) where KEB = 1 × 10^7 M^−1 [EB] is the ethidium bromide concentration (5 μM) and [Q] is the concentration of the quencher that provides a 50% intensity reduction of the initial EB-DNA adduct."}, "[4]": {"assay": "Solution stability by UV-Vis spectroscopy", "format": "physicochemical", "details": "4% DMSO, 96% PBS, pH 7.4, over 24 h", "description": "Stability studies of complexes (1) and (2) were carried out by UV-Vis spectroscopy in the 200–900 nm range. […] The electronic spectra for the solutions were measured over 24 h."}, "Cyclic voltammetry": {"assay": "Cyclic voltammetry", "format": "physicochemical", "details": "10^−3 M in CH2Cl2/DMSO, 0.1 M (Bu4N)PF6, scan rate 50 mVs^−1", "description": "Elemental analyses (C, H, N) were performed by the Microanalysis unit in the Department of Chemistry at Simon Fraser University. Infrared spectra (FTIR) were performed on a JASCO 4100 FTIR spectrophotometer in the 4000–400 cm^−1 range using a KBr disc. NMR (^1H and ^13C) spectra were recorded in DMSO-d6 solvent using a Bruker 400 MHz instrument. The 2D NMR analysis (^1H–^1H COSY) was performed on a Jeol 500 MHz NMR, at Mansoura University. ESI/APCI HRMS data were acquired on a Thermo Scientific Exactive Plus Orbitrap mass spectrometer. Electronic spectra (in DMSO, 200–900 nm) were measured on a JASCO 630 V spectrophotometer. Emission spectra of the complexes were measured on a Jenway model 6285 spectrofluorimeter for excitation and emission spectra, 200–700 nm. The magnetic susceptibility of the complexes was measured on a Johnson Matthey magnetic susceptibility balance. […] A microplate reader (StatFax-2100, Awareness Technology, Inc., Palm City, FA, USA), Attune flow cytometer (Applied Biosystems, Foster City, CA, USA), Quawell nanodrop Q5000 (San Jose, CA, USA), StepOnePlus real time PCR system (Applied Biosystems, Foster City, CA, USA), and CO2 incubator (NuAire In-Vitro Cell, Plymouth, MN, USA) were used in biological studies."}}, "note": "Several values for one entry are separate records, joined by “and”; a condition that tells them apart may be missing. Equal values may be shown once. Read-outs that look alike come from different tables or passages of the source.", "data": [{"compound": "CN(Cc1cnc2nc(N)nc(N)c2n1)c1ccc(C(=O)N[C@@H](CCC(=O)O)C(=O)O)cc1", "note": "[methotrexate]", "values": [{"measurement": "IC50 against EAC cells", "setting": "[1]", "result": "98 ± 2", "unit": "mg/L"}]}, {"compound": "Nc1ccccc1-c1nc2ccccc2[nH]1", "note": "[Hapbim, 2-aminophenyl benzimidazole]", "values": [{"measurement": "IC50", "setting": "[2]; Homo sapiens, MCF7, 24 h", "result": "61 µg/mL and 290 µM"}, {"measurement": "IC50", "setting": "[3]; Homo sapiens, Caco-2, MTT, 24 h", "result": "80 µg/mL and 380 µM"}, {"measurement": "Therapeutic index: IC50 of THLE-2 cell/IC50 of Caco2", "setting": "[3]", "result": 14.2}]}, {"compound": "[Ru(II)Cl2(DMSO)2(Hapbim)] [(1)]", "values": [{"measurement": "Kapp (apparent binding constant)", "setting": "CT DNA (EB-DNA adduct); KEB = 1 × 10^7 M^−1", "result": "1.08 ± 0.11 × 10^7 M^−1"}, {"measurement": "Kq (quenching constant)", "setting": "CT DNA (EB-DNA adduct); Stern-Volmer, 585 nm", "result": "1.96 ± 0.04 × 10^3 M^−1"}, {"measurement": "IC50 MCF-7", "setting": "[2]; 24 h", "result": "170 ± 10", "unit": "mg/L"}, {"measurement": "IC50", "setting": "[2]; 24 h", "result": "320 ± 20", "unit": "µM"}, {"measurement": "IC50", "setting": "[3]; MTT, 24 h", "result": "290 ± 20", "unit": "µM"}, {"measurement": "IC50 Caco2", "setting": "[3]; MTT, 24 h", "result": "155 ± 9", "unit": "mg/L"}, {"measurement": "Therapeutic index: IC50 of THLE-2 cell/IC50 of Caco2", "setting": "[3]", "result": 6.4}, {"measurement": "solution stability (UV-Vis spectral change)", "setting": "[4]", "result": "remain relatively unchanged over the first two hours"}, {"measurement": "E1/2 (Ru(II)/Ru(III) redox couple)", "setting": "Cyclic voltammetry", "result": 615, "unit": "mV"}]}, {"compound": "N.N.[Cl][Pt][Cl]", "note": "[Cisplatin, reference compound]", "values": [{"measurement": "IC50 MCF-7", "setting": "[2]; 24 h", "result": "22 ± 1", "unit": "mg/L"}, {"measurement": "IC50", "setting": "[2]; 24 h", "result": "73 ± 5", "unit": "µM"}]}]}
